Measured values as given in patent US20250304990A1, “HERBICIDE RESISTANCE” (SYNGENTA CROP PROTECTION AG, priority 2021, published 2025).
Several values for one entry are separate records, joined by “and”; a condition that tells them apart may be missing. Equal entries are not always repeated.

Key:
[1] = test system: D4428 (F266I mutant Oryza sativa HST) containing tobacco plant; test: Herbicide damage score after spraying, Example 4; format: in vivo; details: averaged across transgenic population
Protocol: (§1) In order to determine if the newly discovered mutations detailed in Example 1 confer resistance to HST inhibiting compounds when expressed in plants, GM tobacco lines were produced and tested with HST inhibiting compounds. Transgenic tobacco plants expressing the Oryza sativa HST gene with and without mutations were tested.
(§2) Populations of transgenic tobacco comprising 20-30 transgenic events per plant transformation constructs were generated as described in Example 2. These lines were clonally propagated and 1 clone per event was sprayed with 500, 100 or 50 g ai/ha of compound 1+0.2% (w/v) Genapol X080 with a spray volume of 200 L/Ha. (“g ai/ha” refers to grams of active compound per hectare).
(§3) Herbicidal damage was visually assessed across the population and a herbicide damage score given at 7 and 14 days. A score of 0 indicates no visible damage or stunting whereas a score of 100 indicates a complete death of the plant. 20 transgenic events (i.e. individual transgenic plants) from each GM tobacco line were transplanted to soil 1 week prior to spraying with HST inhibiting compounds. WT tobacco was included as a control. The mutated genes are identified in Table 16 below.
(§4) The values in Tables 17 to 23 below refer to percentage of damage to the tested plants and show the damage scores for 20 populations of plants expressing either Oryza sativa WT HST gene (SEQ ID NO. 18), the Oryza sativa HST mutated gene according to SEQ ID NO. 47, the Oryza sativa HST mutated gene according to SEQ ID NO. 48, the Oryza sativa HST mutated gene according to SEQ ID NO. 49, the Oryza sativa HST mutated gene according to SEQ ID NO. 50, or the Oryza sativa HST mutated gene according to SEQ ID NO. 51. A control population of wild-type Samsun tobacco was also assessed for herbicide damage. […] However the mutated versions of the HST gene carrying the F262I, V263A, […], or F266L mutations (SEQ ID NOs: 47, 48, 50 or 51) clearly display increased tolerance.

[2] = test system: D4424 (WT Oryza sativa HST) containing tobacco plant; test: Herbicide damage score after spraying, Example 4; format: in vivo; details: for Average percentage damage: D4424, mutation n.a., averaged across transgenic population; for tolerance to herbicide: overexpression of Oryza sativa HST gene (SEQ ID NO.18) in tobacco
Protocol: as §1, §2, §3, §4

[3] = test system: D4426 (V263A mutant Oryza sativa HST) containing tobacco plant; test: Herbicide damage score after spraying, Example 4; format: in vivo; details: for Average percentage damage: D4426 V263A, averaged across transgenic population
Protocol: as §1, §2, §3, §4

[4] = test system: D4429 (F266L mutant Oryza sativa HST) containing tobacco plant; test: Herbicide damage score after spraying, Example 4; format: in vivo; details: averaged across transgenic population
Protocol: as §1, §2, §3, §4

[5] = test system: D4427 (T264N mutant Oryza sativa HST) containing tobacco plant; test: Herbicide damage score after spraying, Example 4; format: in vivo; details: for percentage of damage: D4427 OsHST V003 T264N, per event; for Average percentage damage: D4427 T264N, averaged across transgenic population
Protocol: as §1, §2, §3, §4

WT tobacco [6] = test: Herbicide damage score after spraying, Example 4; format: in vivo; details: WT tobacco (Example 4), per plant
Protocol: as §1, §2, §3, §4

[7] = test system: D4425 (F262I mutant Oryza sativa HST) containing tobacco plant; test: Herbicide damage score after spraying, Example 4; format: in vivo; details: averaged across transgenic population
Protocol: as §1, §2, §3, §4

[8] = test system: D4294 (T278N mutant Arabidopsis thaliana HST) containing tobacco plant; test: Herbicide damage score after spraying, Example 3; format: in vivo; details: for percentage of damage: D4294 AraHST V003 T278N, per GM event; for Average percentage damage: D4294 T278N, averaged across transgenic population
Protocol: as §1, with “lines are to be” for “lines were”, “the Arabidopsis” for “the Oryza sativa”
(§5) Populations of transgenic tobacco comprising 20-30 transgenic events per plant transformation constructs were generated as described in Example 2. These lines were clonally propagated and 1 clone per event was sprayed with 500, 100 or 50 g ai/ha of compound 1+0.2% Genapol X080 with a spray volume of 200 L/Ha (“g ai/ha” refers to grams of active compound per hectare).
as §3, with “control.” for “control. The mutated genes are identified in Table 16 below.”
(§6) The values in Tables 8 to 14 below refer to percentage of damage to the tested plants and show the damage scores for 20 populations of plants expressing either Arabidopsis WT HST gene (SEQ ID NO. 14), the Arabidopsis HST mutated gene according to SEQ ID NO. 27, the Arabidopsis HST mutated gene according to SEQ ID NO. 28, the Arabidopsis HST mutated gene according to SEQ ID NO. 29, the Arabidopsis HST mutated gene according to SEQ ID NO. 30, or the Arabidopsis HST mutated gene according to SEQ ID NO. 31. A control population of wild-type Samsun tobacco was also assessed for herbicide damage. […] However the mutated versions of the HST gene carrying the F276I, V277A, F280I or F280L mutations (SEQ ID NOs: 27, 28, 30 or 31) clearly display increased tolerance.

[9] = test system: D4292 (F276I mutant Arabidopsis thaliana HST) containing tobacco plant; test: Herbicide damage score after spraying, Example 3; format: in vivo; details: averaged across transgenic population
Protocol: as §1, with “lines are to be” for “lines were”, “the Arabidopsis” for “the Oryza sativa”
as §5
as §3, with “control.” for “control. The mutated genes are identified in Table 16 below.”
as §6

[10] = test system: D4295 (F280I mutant Arabidopsis thaliana HST) containing tobacco plant; test: Herbicide damage score after spraying, Example 3; format: in vivo; details: averaged across transgenic population
Protocol: as §1, with “lines are to be” for “lines were”, “the Arabidopsis” for “the Oryza sativa”
as §5
as §3, with “control.” for “control. The mutated genes are identified in Table 16 below.”
as §6

[11] = test system: D4293 (V277A mutant Arabidopsis thaliana HST) containing tobacco plant; test: Herbicide damage score after spraying, Example 3; format: in vivo; details: averaged across transgenic population
Protocol: as §1, with “lines are to be” for “lines were”, “the Arabidopsis” for “the Oryza sativa”
as §5
as §3, with “control.” for “control. The mutated genes are identified in Table 16 below.”
as §6

[12] = test system: D4291 (WT Arabidopsis thaliana HST) containing tobacco plant; test: Herbicide damage score after spraying, Example 3; format: in vivo; details: for Average percentage damage: D4291, mutation n.a., averaged across transgenic population; for tolerance to herbicide: overexpression of Arabidopsis HST gene (SEQ ID NO.14) in tobacco
Protocol: as §1, with “lines are to be” for “lines were”, “the Arabidopsis” for “the Oryza sativa”
as §5
as §3, with “control.” for “control. The mutated genes are identified in Table 16 below.”
as §6

WT tobacco [13] = test: Herbicide damage score after spraying, Example 3; format: in vivo; details: WT tobacco control, per plant
Protocol: as §1, with “lines are to be” for “lines were”, “the Arabidopsis” for “the Oryza sativa”
as §5
as §3, with “control.” for “control. The mutated genes are identified in Table 16 below.”
as §6

Cf-496-28 = test: Dose response test, growth in 96-well plates; format: cell-based, Chlorella fusca; details: Cf-496-28 (V276A); 2-fold dilutions from 100 ppm
Protocol: (§7) Dose response tests with B5U were set-up in 96-well, flat bottomed plates. 200 μl medium was used in each well. 2 μl of 6 day old culture was added to each well, then 2 μl of DMSO or dilution of test compound were added to respective wells. 2-fold dilutions starting at 100 ppm were used per well. Plates were incubated at 25° C., 50 μmol/m^2/s, 16 hour photoperiod.
(§8) This was assessed by a visual inspection of growth in the 96-well plate. The inhibitor concentration at which no growth is observed is then defined as the LD.
(§9) Starting dose was 100 ppm and decreasing with 2-fold dilutions with C. fusca wt, the five HST mutants and the 10 compounds to which the wt is sensitive. Plates were incubated at 25° C., 50 μmol/m2/s, 16 hour photoperiod.

Cf-496-15 = test: Dose response test, growth in 96-well plates; format: cell-based, Chlorella fusca; details: Cf-496-15 (T277N); 2-fold dilutions from 100 ppm
Protocol: as §7, §8, §9

Cf-496-19 = test: Dose response test, growth in 96-well plates; format: cell-based, Chlorella fusca; details: Cf-496-19 (F275I); 2-fold dilutions from 100 ppm
Protocol: as §7, §8, §9

Cf-496-8 = test: Dose response test, growth in 96-well plates; format: cell-based, Chlorella fusca; details: Cf-496-8 (M278L_F279I); 2-fold dilutions from 100 ppm
Protocol: as §7, §8, §9

Cf WT = test: Dose response test, growth in 96-well plates; format: cell-based, Chlorella fusca; details: Cf WT; 2-fold dilutions from 100 ppm
Protocol: as §7, §8, §9

Cf-496-94 = test: Dose response test, growth in 96-well plates; format: cell-based, Chlorella fusca; details: Cf-496-94 (F275L); 2-fold dilutions from 100 ppm
Protocol: as §7, §8, §9

Cc1nn(C)c(=O)c(-c2c(F)ccc(Cl)c2CCc2cnn(C)c2)c1O [B5b, 4-[3-chloro-6-fluoro-2-[2-(1-methylpyrazol-4-yl)ethyl]phenyl]-5-hydroxy-2,6-dimethyl-pyridazin-3-one]
Average percentage damage ([1]; T3 B5b 100 gai/ha): 34%
Average percentage damage ([2]; T3 B5b 100 gai/ha): 82%
tolerance to herbicide [2]: does not increase tolerance
percentage of damage ([3]; T3 B5b 100 gai/ha, D4426 OsHST V002 V263A, per event): 5% and 0% and 10% and 3%
Average percentage damage ([3]; T3 B5b 100 gai/ha): 4%
Average percentage damage ([4]; T3 B5b 100 gai/ha): 18%
percentage of damage ([5]; T3 B5b 100 gai/ha): 96% and 98% and 95% and 97% and 99% and 90%
Average percentage damage ([5]; T3 B5b 100 gai/ha): 96%
percentage of damage (WT tobacco [6]; T3 B5b 100 gai/ha): 95% and 96% and 97% and 93% and 90%
Average percentage damage ([7]; T3 B5b 100 gai/ha): 36%
percentage of damage ([8]; T3 B5b 100 gai/ha): 100% and 75% and 95% and 98% and 99% and 90%
Average percentage damage ([8]; T3 B5b 100 gai/ha): 95%
Average percentage damage ([9]; T3 B5b 100 gai/ha): 26%
Average percentage damage ([10]; T3 B5b 100 gai/ha): 29%
Average percentage damage ([11]; T3 B5b 100 gai/ha): 15%
Average percentage damage ([12]; T3 B5b 100 gai/ha): 47%
tolerance to herbicide [12]: does not increase tolerance
percentage of damage (WT tobacco [13]; T3 B5b 100 gai/ha): 90% and 95%

Cc1nc2ccc(CCc3c(Cl)ccc(F)c3-c3c(O)c(C)nn(C)c3=O)cc2o1 [B8a, 4-[3-chloro-6-fluoro-2-[2-(2-methyl-1,3-benzoxazol-6-yl)ethyl]phenyl]-5-hydroxy-2,6-dimethyl-pyridazin-3-one]
Average percentage damage ([1]; T4 B8a 50 gai/ha): 27%
Average percentage damage ([2]; T4 B8a 50 gai/ha): 36%
tolerance to herbicide [2]: does not increase tolerance
Average percentage damage ([3]; T4 B8a 50 gai/ha): 14%
Average percentage damage ([4]; T4 B8a 50 gai/ha): 22%
Average percentage damage ([5]; T4 B8a 50 gai/ha): 46%
percentage of damage (WT tobacco [6]; T4 B8a 50 gai/ha): 95% and 96%
Average percentage damage ([7]; T4 B8a 50 gai/ha): 28%
Average percentage damage ([8]; T4 B8a 50 gai/ha): 90%
Average percentage damage ([9]; T4 B8a 50 gai/ha): 33%
Average percentage damage ([10]; T4 B8a 50 gai/ha): 30%
Average percentage damage ([11]; T4 B8a 50 gai/ha): 16%
Average percentage damage ([12]; T4 B8a 50 gai/ha): 64%
tolerance to herbicide [12]: does not increase tolerance
percentage of damage (WT tobacco [13]; T4 B8a 50 gai/ha): 85% and 95% and 90%

Cc1nn(C)c(=O)c(-c2c(F)ccc(Cl)c2CCc2ccc(F)cc2)c1OC(=O)C(C)C [B5p, [5-[3-chloro-6-fluoro-2-[2-(4-fluorophenyl)ethyl]phenyl]-1,3-dimethyl-6-oxo-pyridazin-4-yl]2-methylpropanoate]
dose response to HST inhibiting compounds (Cf-496-28): >100 ppm
dose response to HST inhibiting compounds (Cf-496-15): >100 ppm
dose response to HST inhibiting compounds (Cf-496-19): >100 ppm
dose response to HST inhibiting compounds (Cf-496-8): >100 ppm
dose response to HST inhibiting compounds (Cf WT): 25 ppm
dose response to HST inhibiting compounds (Cf-496-94): >100 ppm

Cc1nn(C)c(=O)c(-c2c(F)ccc(Cl)c2CCc2ccnc(F)c2)c1O [B5a, 4-[3-chloro-6-fluoro-2-[2-(2-fluoro-4-pyridyl)ethyl]phenyl]-5-hydroxy-2,6-dimethyl-pyridazin-3-one]
Average percentage damage ([1]; T2 B5a 100 gai/ha): 75%
Average percentage damage ([2]; T2 B5a 100 gai/ha): 93%
percentage of damage ([2]; T2 B5a 100 gai/ha, D4424 pBin TMV OsHST, per event): 90% and 96% and 95% and 97% and 98% and 85% and 80%
tolerance to herbicide [2]: does not increase tolerance
Average percentage damage ([3]; T2 B5a 100 gai/ha): 22%
Average percentage damage ([4]; T2 B5a 100 gai/ha): 42%
percentage of damage ([5]; T2 B5a 100 gai/ha): 95% and 98% and 80% and 97% and 96% and 99% and 100%
Average percentage damage ([5]; T2 B5a 100 gai/ha): 96%
percentage of damage (WT tobacco [6]; T2 B5a 100 gai/ha): 90% and 95%
Average percentage damage ([7]; T2 B5a 100 gai/ha): 69%
percentage of damage ([8]; T2 B5a 100 gai/ha): 100% and 95% and 90% and 99%
Average percentage damage ([8]; T2 B5a 100 gai/ha): 96%
Average percentage damage ([9]; T2 B5a 100 gai/ha): 45%
Average percentage damage ([10]; T2 B5a 100 gai/ha): 60%
Average percentage damage ([11]; T2 B5a 100 gai/ha): 28%
Average percentage damage ([12]; T2 B5a 100 gai/ha): 89%
tolerance to herbicide [12]: does not increase tolerance
percentage of damage (WT tobacco [13]; T2 B5a 100 gai/ha): 95% and 90% and 85%
